“Also recorded” adds a separate entry of the source. Ends that are not written are not given here.
Assays:
[1] = test system: human skin equivalents (donors); experiment: Histology score of human skin equivalents (Example 16); type: cell-based; settings: 0.01% w/v (or 1 μM), 5 days; control 21.00
Description: To test the effect of Peptide 13 and Peptide 14 treatment on human skin models and the skin morphology, human primary fibroblasts and keratinocytes isolated from healthy elder donors were used to build human skin equivalents. The skin equivalents were treated with 0.01% w/v (or 1 μM) of Peptide 13 or Peptide 14 for 5 days. The negative controls were treated with formulation only. After the 5-day culture, the skin equivalents were analyzed for epidermal thickness, which was quantified according to total epidermal area. Quality assessment based several parameters was performed by blind analysts. […] A minimal score of 19 was required for batch use. This score was validated internally and shown to decrease with age/senescence of the skin equivalents or cultured cells. Three independent experiments were performed with three technical replicates. Data were analyzed using a t-test. Statistical significance was determined as p-values equal or lower than 0.05. The statistically significant p-values are noted by * for p<0.05; ** for p<0.01; *** for p<0.001; **** for p<0.0001 between the groups.

pAkt S473 = experiment: Akt S473 phosphorylation western blot in skin equivalents; type: cell-based, human; settings: 1p M, 5 days
Description: (§1) In order to shed light into the mechanism of action of Peptide 14 and similar Peptide 13, Akt S473 phosphorylation (FIG. 8, panel A), senescence associated β-galactosidase staining (FIG. 8, panel B), as well as mRNA expression (FIG. 8, panel C) were investigated. For Akt S473 phosphorylation analysis using western blotting, human primary fibroblasts and keratinocytes were used. These cells were used to build human skin equivalents, which were kept in a 5% CO2, 37° C. and 95% humidity atmosphere air liquid interface. Then, skin equivalents were treated with 1p M of either Peptide 14 or Peptide 13 for 5 days, and protein analysis was performed on the skin equivalents. Protein was isolated and quantified. Equal amounts of protein were loaded in polyacrylamide gels and transferred into a nitrocellulose membrane. […] Relative pAkt S473/GAPDH signal was compared between treated and non-treated samples. For senescence associated B-galactosidase staining experiments, fibroblasts were used. […] Total RNA was isolated, samples were reverse transcribed, and mRNA expression of GAPDH, sirtuin 6 (SIRT6), BLM, and exonuclease 1 (EXO1) genes were determined using qPCR. […] CT values were analyzed using the 2^−ΔΔCt method. […] Data was analyzed using a T-test. Statistical significance was determined as p values equal or lower than 0.05 (FIG. 8).

[2] = test system: 3D skin equivalent (elder donors); experiment: Relative mRNA expression in 3D skin equivalents versus Retinoic Acid; type: cell-based, human; settings: 1p M peptide vs 20 μM Retinoic Acid
Description: 3D skin equivalent sections of samples built with cells from elder donors ([…]) were treated with 1p M Peptide 14 or Peptide 13, or 20 μM Retinoic Acid (RA) and assessed for the effect of the various treatments of various markers of senescence, aging, and health.
Data are presented as 2-ddCt normalized to GAPDH and untreated control. *p<0.05. Peptide 13 and Peptide 14-treated samples generally had similar relative mRNA expression levels for p16, BLIMP1, ZYG11B, IL-8, and Ki-67 in the epidermal layer, and for p16, MMP1, HAS2, IL-8, and Ki-67 in the dermal layer. Peptide 13 and Peptide 14-treated samples generally had lower relative mRNA expression levels than RA-treated samples for p16, BLIMP1, ZYG11B, IL-8, in the epidermal layer and for p16, MMP1, IL-8, and Ki-67 in the dermal layer. Peptide 13 and Peptide 14-treated samples generally had higher relative mRNA expression levels than RA-treated samples for Ki-67 in the epidermal layer and for HAS2 for the dermal layer. Peptide 13 and Peptide 14-treated samples had similar relative mRNA expression levels as RA-treated samples for ZIC1 and Ki-67 for dermal layer.

fibroblasts = experiment: SA B-galactosidase staining after UVB (Example 8); type: cell-based, human; settings: 48 hours after 2 x 0.05 J/cm^2
Description: as §1

[3] = test system: human primary fibroblasts isolated from 3 healthy donors; experiment: UVB-induced senescence; type: cell-based; settings: 5 μM, 48 hours
Description: Cellular senescence may be caused by several different stimuli. In order to assess whether Peptide 14 was effective against UVB-induced and chemically-induced senescence, human primary fibroblasts isolated from 3 healthy donors were used. These cells were cultured in DMEM (Dulbecco's Modified Eagle's Medium) supplemented with 10% v.v. fetal bovine serum (FBS), and 1% v.v. of penicillin/streptomycin solution (1,000 U mL-1). Cells were kept in a 5% CO2, 37° C. and 95% humidity atmosphere. After expansion, these cells were seeded in 96-well plates (4,000 cells per well) and, 6 hours after plating, were submitted to either etoposide (20 μM) treatment for 24 hours, or exposed twice to 0.05 J/cm^2 of UVB radiation. […] After incubation, relative cellular senescence (assessed by the activity of senescence associated β-galactosidase staining relative to untreated control) was analyzed and plotted in column graphs. ATRX foci were also assessed following ATRX immunofluorescence staining. Graphs were built using the average ATRX foci detected per nuclei. […] Data was analyzed using with either t-test or ANOVA followed by a Bonferroni post-hoc test. Statistical significance was determined as p-values equal or lower than 0.05 (FIG. 6).

[4] = test system: Human primary fibroblasts isolated from 3 healthy chronologically aged (elder) donors; experiment: 3-week exposure: senescence and proliferation; type: cell-based; settings: 3.12 μM, days 7-28
Description: Human primary fibroblasts isolated from 3 healthy chronologically aged (elder) donors were used. These cells were cultured in DMEM (Dulbecco's Modified Eagle's Medium) supplemented with 10% v.v. fetal bovine serum (FBS), and 1% v.v. of penicillin/streptomycin solution (1,000 U·mL-1). Cells were kept in a 5% CO2, 37° C. and 95% humidity atmosphere. After expansion, these cells were seeded in T-75 flasks (250,000 cells per flask) and, 6 hours after plating, were incubated for 3 weeks (21 days) with Peptide 14 at 3.12 μM. A negative control comprised untreated cells, which received vehicle only. Day 0 was defined as the day cells started to be treated with Peptide 14. No Peptide 14 treatment was performed between days 21 and 28. Weekly, cellular senescence was assessed according to senescence associated β-galactosidase staining levels. Data was normalized to untreated group and plotted (FIG. 4, panel A). Cellular proliferation was also determined weekly. At days 7, 14, 21, and 28, cells were trypsinized and counted (FIG. 4, panel B). After counting, 250,000 cells were plated in new T-75 flasks. Three independent experiments (biological replicates) including three technical replicates were performed. Data was analyzed using T-test. Statistical significance was determined as p values equal or lower than 0.05.

U-937 macrophages = settings: 3.12 μM, absence or presence of 0.5 μg/mL LPS
Source text: In some cases, monocytes and macrophages may be involved in inflammation of various skin disorders. In order to assess the effect of Peptide 14 on inflammation, an in vitro model of inflammation using monocytes and macrophages was used to study the effect of direct culture of the Peptide 14 with such cells. Cells from the U-937 cell line (Banco de Células do Rio de Janeiro—BCRJ cat. 0242) were used for experiments. According to BCRJ, the U-937 cell line was derived by Sundstrom and Nilsson in 1974 from malignant cells obtained from the pleural effusion of a patient with histiocytic lymphoma. Also, studies since 1979 have shown that U-937 cells can be induced to terminal monocytic differentiation by supernatants from human mixed lymphocyte cultures or phorbol myristic acid (PMA) stimulation.

Caenorhabditis elegans = experiment: C. elegans healthspan and lifespan; type: in vivo; settings: at the concentrations tested (1 μM, 2 μM)
Description: Senotherapeutic strategies can be linked to healthspan and lifespan extension in vivo. In order to assess whether Peptide 14 promotes extended healthspan and lifespan, Caenorhabditis elegans worms were used. Peptide 14 was added in the worm media (M9 buffer media) at different concentrations of 1 μM or 2 μM. Negative control worms received vehicle only. Two healthspan parameters were assessed i) pharyngeal pumping and ii) worm movement. Lifespan was also determined. For pharyngeal pumping analysis, 15 worms had their pharynx movement (pumping) observed daily and counted for 20 seconds. This experiment was repeated 3 times, by 2 different blind observers, employing different populations of animals at different days. Statistical difference was detected by analyzing each individual time point by One-Way ANOVA and Dunnet's post hoc test. All groups were compared with the H2O group. For worm movement analysis, the basic movement of C. elegans, also called thrashing, was measured daily for 15 worms. […] Statistical difference was detected by analyzing each individual time point by One-Way ANOVA and Dunnet's post hoc, and all groups were compared with the H2O group. […] The average lifespan was measured. Statistical difference was detected by analyzing each individual time point by One-Way ANOVA and Dunnet's post hoc, and all groups were compared with the H2O group (FIG. 15).

[5] = test system: peripheral blood mononuclear cells (PBMCs); experiment: PBMC viability / toxicity (MTT); type: cell-based, human; settings: 1.56 μM to 150 μM
Description: T cells may be involved in inflammation of various skin disorders. […] This study was approved by an IRB board. PBMCs were obtained from healthy volunteers. After isolation, the PBMCs were maintained in 96 wells and treated with different concentrations of Peptide 14 (1.56 μM to 150 μM) in order to assess toxicity of Peptide 14 to the PBMCs.
The viability and proliferation of PBMCs were analyzed by MTT assay. Briefly, after 5 days of treatment, the cells were incubated with […] MTT reagent for 4 hours. Then, 100 μL of DMSO was added into each well, and the absorbance was detected at 595 nm. Data was presented as percentage of proliferation/viability normalized to the negative control of untreated PBMCs (100% viability/proliferation).

ATAKAWLKGI [Peptide 13]
mean of histology scores (maximum 28) [1]: 23.44
pAkt S473, dermal samples (pAkt S473): decreased
relative mRNA BLIMP1, epidermal layer, vs RA-treated samples [2]: lower
relative mRNA HAS2, dermal layer, vs RA-treated samples [2]: higher
relative mRNA IL-8, dermal layer, vs RA-treated samples [2]: lower
relative mRNA IL-8, epidermal layer, vs RA-treated samples [2]: lower
relative mRNA Ki-67, dermal layer, vs RA-treated samples [2]: lower; also recorded: similar
relative mRNA Ki-67, epidermal layer, vs RA-treated samples [2]: higher
relative mRNA MMP1, dermal layer, vs RA-treated samples [2]: lower
relative mRNA ZIC1 vs RA-treated samples [2]: similar
relative mRNA ZYG11B, epidermal layer, vs RA-treated samples [2]: lower
relative mRNA p16, dermal layer, vs RA-treated samples [2]: lower
relative mRNA p16, epidermal layer, vs RA-treated samples [2]: lower
SA B-galactosidase staining in UVB-exposed samples (fibroblasts): decreased staining

ETAKHWLKGI [Peptide 14, ETAKHWLKGI]
cell number after UVB [3]: did not significantly alter cell number
cell proliferation vs untreated control [4]: No significant differences
cell toxicity to U-937 macrophages (U-937 macrophages): nor any detectable cell toxicity
cell viability vs untreated control U-937 macrophages (U-937 macrophages): did not result in lower cell viabilities
toxicity to C. elegans (worm movement) (Caenorhabditis elegans): not toxic
cell toxicity to PBMCs [5]: nor any detectable cell toxicity
cell viability vs untreated control PBMCs [5]: did not result in lower cell viabilities
